{"source": "patent US20230127258A1", "about": "“COMPOSITION COMPRISING THROMBIN DERIVED PEPTIDES AND USE THEREOF” (In2Cure AB, priority 2019, published 2023)", "key": {"[1]": {"tested_on": "P. aeruginosa-induced sepsis and LPS-mediated shock", "conditions": "mouse models of endotoxic shock; cited from earlier work"}, "[2]": {"tested_on": "LPS / TLR4- and TLR2-induced NF-kB activation", "conditions": "cited from earlier work"}, "[3]": {"tested_on": "S. aureus, P. aeruginosa and E. coli", "test": "MIC and MBC of TCP-25 with EDTA, text summary for all three bacterial strains (FIG. 20B-C)", "format": "cell-based", "procedure": "The minimal inhibitory concentration (MIC) was conducted according to standard protocol (Wiegand et al., 2008). A 1% bacterial solution was diluted 1:1000 times in 2×BBL™ Mueller Hinton (MH) II, cation adjusted broth (Becton, Dickinson and Company, Sparks, USA). […] Next, 50 μl of the bacterial solution was added. MH broth without bacteria was used as a sterile control, whereas supplemented only with bacteria as growth control. […] MIC was assessed as the lowest concentration of treatment that prevents visual bacterial growth in the wells. The MIC plates were then used to determine the minimal bactericidal concentration (MBC) for the various treatments. This was conducted by resuspending the solution in each well with a pipette and then plating 10 μl droplets on a THA plates which were then incubated in 37° C. overnight. MBC was established at concentration at which no bacterial colonies were observed."}}, "data": [{"compound": "HVFRLKKWIQKVIDQFGE (TCP-25 fragment; PEPTIDE (1)..(18) TCP-25 fragment) [HVF18]", "values": [{"measurement": "mortality", "setting": "[1]", "value": "reduce mortality"}, {"measurement": "anti-endotoxic functions", "setting": "[2]", "value": "anti-endotoxic functions in vitro and in vivo"}]}, {"compound": "O=C(O)CN(CCN(CC(=O)O)CC(=O)O)CC(=O)O", "note": "[EDTA, ethylenediaminetetraacetic acid]", "values": [{"measurement": "antibacterial effect of EDTA alone", "setting": "[3]", "value": "some bacteriostatic effect"}]}]}
